Test results published in PMC9148066, “The Medicinal Halophyte Frankenia laevis L. (Sea Heath) Has In Vitro Antioxidant Activity, α-Glucosidase Inhibition, and Cytotoxicity towards Hepatocarcinoma Cells” (Plants, 2022).
Marks after values point to notes of the source that are not given here.

Tests used:
RSA on DPPH radical = details: DPPH 120 µM, 30 min
Method: (§1) The absorbance was measured in a microplate reader (Biotek Synergy 4), and the activity was calculated as a percentage of inhibition, relative to a control containing DMSO in place of the sample.
(§2) The extracts were tested on DPPH and ABTS, as described elsewhere. The samples were mixed with radical solutions (DPPH: 120 µM; ABTS: 7.4 mM) in 96-well flat-bottom microtitration plates and were incubated in darkness at RT for 30 and 6 min, respectively. The synthetic antioxidant BHT (E320), used as a preservative in food and cosmetics, was used as a positive control at the same concentrations of the samples. The absorbance was measured at 517 and 734 nm for DPPH and ABTS, respectively.

RSA on ABTS radical = details: ABTS 7.4 mM, 6 min
Method: as §1, §2

α-glucosidase = target: α-glucosidase; set-up: method as in doi:10.1016/j.sajb.2020.01.011; details: cited from earlier work
HepG2 cells [1] = details: cited from earlier work
[2] = Copper chelating activity (CCA); details: pyrocatechol violet, CuSO4
Method: (§5) The CCA and ICA of the extracts and the positive control (EDTA) were assessed in 96-well microplates according to the methods described in Rodrigues et al. [53]. For CCA, the samples were mixed with 50 mM Na acetate buffer (pH 6), 4 mM pyrocatechol violet, and 50 µg/mL CuSO4 solution. For ICA, the samples were mixed with distilled water and 0.1 mg/mL FeCl2 solution. After 30 min, a 40 mM ferrozine solution was added. The change in absorbance was measured at 632 and 562 nm for CCA and ICA, correspondingly.

[3] = Iron chelating activity (ICA); details: FeCl2, ferrozine
Method: as §5

[4] = test system: human lung carcinoma cells (A549); set-up: method as in PMID 19471192; details: cited from earlier work
[5] = Cellular viability assay (MTT), S17; type: cell-based; details: mouse, S17 bone marrow stromal cells (non-tumoral), read-out: S17 cytotoxic activity EC50
Method: (§3) The HepG2 (human hepatocellular carcinoma) and S17 (murine bone marrow stromal) cell lines were maintained in Dulbecco’s modified eagle medium (DMEM) culture medium supplemented with 10% heat-inactivated fetal bovine serum (FBS), 1% L-glutamine (2 mM), and 1% penicillin (50 U/mL)/streptomycin (50 μg/mL) and were maintained at 37 °C in humidified atmosphere with 5% CO2.
(§4) HepG2 and S17 cells were plated in 96-well tissue plates at a density of 5 × 10^3 cells/well and were incubated for 24 h. Then, the extracts were applied at several concentrations (3.125, 6.25, 12.5, 25, 50 and 100 µg/mL) for 72 h. The 3-(4,5-dimethylthiazol-2-yl)-2,5-diphenyltetrazolium bromide (MTT) colorimetric test was used to determine the cellular viability (Biotek Synergy 4), as formerly detailed. […] The selectivity index (SI) was obtained by dividing the EC50 value of non-tumoral cells (S17) by the EC50 of tumoral cells (HepG2).

HepG2 cells [6] = assay: Cellular viability assay (MTT), HepG2; type: cell-based; details: Homo sapiens, 72 h, read-out: HepG2 cytotoxic activity EC50
Method: as §3, §4

Cc1cc(C(C)(C)C)c(O)c(C(C)(C)C)c1 [BHT, butylated hydroxytoluene]
RSA-DPPH EC50 (RSA on DPPH radical): 0.11 ± 0.00 ^a mg/mL
RSA-ABTS EC50 (RSA on ABTS radical): 0.06 ± 0.00 ^a mg/mL

CC1(C)C[C@H](O)C[C@@]2(C)OC(=O)C=C12 [Loliolide]
α-glucosidase EC50 (α-glucosidase; approx. equivalent of the µM value): approx. 76 µg/mL
EC50 (α-glucosidase): 388 µM
Cytotoxicity against HepG2 cells (HepG2 cells [1]): selective cytotoxicity

O=C(O)CN(CCN(CC(=O)O)CC(=O)O)CC(=O)O [EDTA, ethylenediamine tetraacetic acid]
CCA EC50 [2]: 0.17 ± 0.00 ^a mg/mL
ICA EC50 [3]: 0.06 ± 0.00 ^a mg/mL

CC1(C)C[C@H](O)C[C@]2(C)OC(=O)C=C12 [isololiolide, Isololiolide]
Cytotoxicity against HepG2 cells (HepG2 cells [1]): selective cytotoxicity

CC1(C)CCCC2(C)OC(=O)C=C12 (centres unmarked) [Dihydroactinidiolide]
Cytotoxic effect on A549 [4]: strong cytotoxic effect

COc1cc([C@@H]2c3cc4c(cc3[C@@H](O[C@@H]3O[C@@H]5CO[C@@H](C)O[C@H]5[C@H](O)[C@H]3O)[C@H]3COC(=O)[C@H]23)OCO4)cc(OC)c1O [etoposide]
EC50 at 72 h [5]: 7.86 ± 0.25 µg/mL
EC50 (HepG2 cells [6]): 1.45 ± 0.15 µg/mL
